The assay addresses Envelope glycoprotein gp160 (Human immunodeficiency virus 1, UniProt Q6QLK5). Description: inhibitors of HIV fusion peptide binding, primary screen, biochemical, uHTS, fluorescence dequenching (AID 1986).

We go through 1 compound from ChEMBL document CHEMBL1201862, “PubChem BioAssay data set” (2004).

Active and inactive are the calls of the source. Cut-off read from the data, not from the text of the source: actives have a measured IC50 and inactives only a lower limit.

Sequence of Envelope glycoprotein gp160 (Q6QLK5 whole entry, the tested form may be a part): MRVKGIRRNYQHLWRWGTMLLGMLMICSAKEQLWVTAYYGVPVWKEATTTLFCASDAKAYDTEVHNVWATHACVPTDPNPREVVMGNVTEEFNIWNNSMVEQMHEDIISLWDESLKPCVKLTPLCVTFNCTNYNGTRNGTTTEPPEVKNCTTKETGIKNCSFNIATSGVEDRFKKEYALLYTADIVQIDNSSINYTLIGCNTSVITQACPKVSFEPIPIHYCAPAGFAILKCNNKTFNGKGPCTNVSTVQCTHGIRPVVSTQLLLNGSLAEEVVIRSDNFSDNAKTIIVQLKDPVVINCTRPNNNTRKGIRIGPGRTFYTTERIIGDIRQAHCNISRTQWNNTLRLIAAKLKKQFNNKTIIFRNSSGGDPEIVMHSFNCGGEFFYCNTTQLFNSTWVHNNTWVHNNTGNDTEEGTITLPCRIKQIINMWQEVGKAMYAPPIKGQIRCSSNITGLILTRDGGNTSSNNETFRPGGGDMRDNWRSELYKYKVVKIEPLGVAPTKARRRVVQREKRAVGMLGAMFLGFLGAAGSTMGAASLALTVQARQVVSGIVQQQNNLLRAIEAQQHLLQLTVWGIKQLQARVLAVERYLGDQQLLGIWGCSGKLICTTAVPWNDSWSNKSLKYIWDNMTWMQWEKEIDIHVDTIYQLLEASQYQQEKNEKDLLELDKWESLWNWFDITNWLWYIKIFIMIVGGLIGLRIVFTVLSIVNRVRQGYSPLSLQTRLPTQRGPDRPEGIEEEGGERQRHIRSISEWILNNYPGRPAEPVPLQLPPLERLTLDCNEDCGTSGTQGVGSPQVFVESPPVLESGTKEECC

In general, IC50 refers to the concentration needed to halve the response being measured. As for `Cc1cc(C)c2nc(N3C(=O)C(O)=C(C(=O)c4ccco4)C3c3ccco3)sc2c1` (stereo unspecified), the IC50 is 12.4 µM (active).
